US8470964B2, “Peptides derived from NCAM (FGLs)” (Enkam Pharmaceuticals A/S, priority 2007, dated 2013)
Entries after “also recorded” stand apart in the source; their conditions may differ. Where no end group is shown, it is not given here.

Columns and labels:
[1] = system: primary cerebellar granule rat cells (CGC); experiment: Neurite outgrowth of cerebellar granule neurons; format: cell-based; details: CGC from 7-day old Wistar rats, 24 hrs; bell-shaped dose response
Description: FIG. 2. Effects of FGLs on neurite outgrowth of early postnatal rat cerebellar neurons. CGCs were prepared from 7-day old Wistar rats and plated on uncoated eight-well Lab-Tek® chamber The peptide was added to the medium immediately after plating, and cells were maintained at 37° C., 5% CO2 for 24 hrs. CGC cultures were fixed in 4% and then immunostained against rat GAP-43. Neurite outgrowth was determined by image analysis of 200±20 neurons in each individual experiment. The length of neuronal processes per cell was estimated stereologically. The results are given as mean values±SEM from at least three independent experiments and illustrated as percentage of control values. *p<0.05 when compared with control by paired t-test.
This study investigated the effect of FGLs on neurite outgrowth of dissociated primary cerebellar granule rat cells (CGC) cultured in vitro.
Efficacy is found over a range of concentrations corresponding to that of target (FGFR) activation and follows the same bell-shaped dose-response.

[2] = system: (25-35) β-amyloid peptide fragment induced cognitive deficits model in rats; experiment: (25-35) β-amyloid induced cognitive deficits, intranasal administration, SRT; format: in vivo, rat; details: 1.28 mg/kg intranasally daily, 15 doses day 7 to 21; SRT 22 days after β-amyloid injection
Text: FIG. 9. Effects of intranasal administration of FGLs on the β-amyloid neurotoxicity induced deficit on performance in the Social Recognition Test. Rats received an intranasal administration of FGLs at the stated doses or vehicle daily at days 7 to 21 after i.c.v. administration of the (25-35) β-amyloid (A-β) fragment. 8-10 animals per group. Results are expressed as Means and SEM of Recognition Ratio and analyzed by one-sample t-test: **p<0.05.
In this study, the (25-35) β-amyloid peptide fragment induced cognitive deficits model in rats was used to investigate the dose-response (0.08, 0.32 or 1.28 mg/kg) effect of FGLs administered intranasally daily for 15 doses from day 7 to day 21 post β-amyloid peptide i.c.v. injection. The social memory performance was evaluated using the SRT, 22 days after the β-amyloid injection. A statistically significant impairment of short-term memory was observed as a consequence of the (25-35) β-amyloid neurotoxicity in the rats receiving the (25-35) β-amyloid fragment plus vehicle.

[3] = system: rat model of (25-35) β-amyloid induced neurotoxicity; experiment: (25-35) β-amyloid induced neurotoxicity, subcutaneous administration: SRT and neuropathology; format: in vivo
Description: FIG. 8. The effect of FGLs (administered subcutaneously at the stated doses), or vehicle on the development of cognitive impairment (deficit in short-term social memory) and neurodegeneration after (25-35) β-amyloid (A-β) fragment neurointoxication. Comparisons of RR values to a hypothetical value 0.50 were carried using one-sample t-test. Intergroup comparisons between A-β groups were carried out using One Way ANOVA and Newman-Keuls post-hoc test and comparison between A-β vehicle and sham-operated animals by un-paired t-test.
In the rat model of (25-35) β-amyloid induced neurotoxicity (Delobette et al., 1997; Maurice et al., 1996), (25-35) aggregated β-amyloid neurotoxin is injected intracerebroventricularly leading to progressive deterioration of short-term memory (clearly detectable using the Social Recognition Test (SRT) with a 30-minute inter-trial interval (ITI) (Kogan et al., 2000), and to neurodegeneration in cortex and hippocampus characterized by increases in amyloid burden, tau phosphorylation and micro- and macro-glia activation, as well as neuronal loss (Klementiev et al., 2007).
In this study, 3.2, 0.8, 0.2 mg/kg of FGLs or sterile PBS were administered daily by subcutaneous injection. Administration was started 7 days after i.c.v. administration of an aggregated form of the (25-35) β-amyloid peptide fragment and continued until day 28 when the rats were terminated.
The social memory performance was estimated, using the SRT 21-22 days after i.c.v. administration of the β-amyloid fragment.
A significant neuroprotective effect of FGLs was detected in both areas. The minimum effective dose of FGLs for neuroprotection was 0.8 mg/kg, in hippocampus and 0.2 mg/kg in cingulate cortex.

[4] = daily s.c. from day 7, neuropathology at day 28

FGLs: two identical 11 amino acid peptides (VAENQQGKSKA), forming a dimer through a linker molecule (iminodiacetic acid); peptide amide (VAENQQGKSKA-NH2; not fully specified; also: dimer of two identical peptides through iminodiacetic acid linker, attachment site not given here)
concentration range with neurite outgrowth promoting activity [1]: 5 to 25 µg/mL
deficit in social memory performance (SRT) compared with vehicle treated rats [2]: significant (p<0.01) amelioration of the deficit
short-term memory deficit in SRT compared to placebo-treated rats ([3]; 0.8 mg/kg s.c. daily, SRT 21-22 days after i.c.v. β-amyloid): statistically significant reduction in the short-term memory deficit
PRESENCE OF A SIGNIFICANT PEPTIDE EFFECT: SRT short-term social recognition memory ([3]; daily s.c. 0.2, 0.8, 3.2 mg/kg from day 7, SRT 21-22 days after i.c.v. β-amyloid): YES (p < 0.01)^1
EFFECTIVE DOSE OR DOSE RANGE: SRT short-term social recognition memory ([3]; daily s.c. from day 7, SRT 21-22 days after i.c.v. β-amyloid): 0.8 mg/kg
EFFECTIVE DOSE OR DOSE RANGE: Density Intact neurons Cingulate cortex [3, 4]: 0.8 mg/kg
EFFECTIVE DOSE OR DOSE RANGE: Density Intact neurons Hippocampus (CA3) [3, 4]: 0.8 mg/kg
EFFECTIVE DOSE OR DOSE RANGE: Density damaged neurons Cingulate cortex [3, 4]: 0.2 mg/kg
EFFECTIVE DOSE OR DOSE RANGE: Density damaged neurons Hippocampus (CA3) [3, 4]: 0.8 mg/kg
PRESENCE OF A SIGNIFICANT PEPTIDE EFFECT: Density Intact neurons Cingulate cortex [3, 4]: Yes (p < 0.05)^3
PRESENCE OF A SIGNIFICANT PEPTIDE EFFECT: Density Intact neurons Hippocampus (CA3) [3, 4]: YES (P < 0.05)
PRESENCE OF A SIGNIFICANT PEPTIDE EFFECT: Density damaged neurons Cingulate cortex [3, 4]: YES (p < 0.01,
PRESENCE OF A SIGNIFICANT PEPTIDE EFFECT: Density damaged neurons Hippocampus (CA3) [3, 4]: YES (p < 0.05)^3
minimum effective dose for neuroprotection in cingulate cortex ([3]; daily s.c., day 28): 0.2 mg/kg
minimum effective dose for neuroprotection in hippocampus ([3]; daily s.c., day 28): 0.8 mg/kg
β-amyloid burden in the cingulate cortex ([3]; daily s.c., day 28, large variability among animals): Neither the lesion, nor the peptide had significant effects; also recorded: did not reach significance
minimum effective dose for neuroprotection ([3]; subcutaneous administration): 0.2 mg/kg
minimum effective dose, social recognition memory deficit ([3]; subcutaneous administration): 0.8 mg/kg
